# In ChEMBL document CHEMBL3137667, “[Drug-induced liver injury; fourteenth updated edition of the bibliographic database of liver injuries and related drugs]” (Gastroenterol Clin Biol, 2004):
# Columns and labels:
# [1] = human, serum, 4383 h
# [2] = human, serum
# [3] = human
# [4] = human; remark: listed apart in the source
# [5] = human; remark: listed apart in the source
# [6] = Highest frequency of moderate liver toxicity observed during clinical trials, expressed as a percentage. [column '% BIOL' in source]; details: human
# [7] = Highest frequency of acute liver toxicity observed during clinical trials, expressed as a percentage. [column '% AIGUE' in source]; details: human
# [8] = human; remark: listed apart in the source
# [9] = human, serum; remark: listed apart in the source
# [10] = human; remark: listed apart in the source
# [11] = human; remark: listed apart in the source
# [12] = human; remark: listed apart in the source
# [13] = Times to onset, minimal and maximal, observed in the indexed observations. [column 'DELAI' in source]; details: human
# [14] = human; remark: listed apart in the source
# [15] = human; remark: listed apart in the source
# 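For Hepatotoxicity (association with vascular disease) in this document: count of indexed literature references reporting vascular liver injury in humans, e.g. peliosis hepatitis, hepatic veno-occlusive disease or Budd-Chiari syndrome.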
# 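For Hepatotoxicity (benign tumour) in this document: value is a count of indexed literature references citing a benign tumour confirmed by histopathology.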
# 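For Hepatotoxicity (choleostasis) in this document: human cholestatic liver injury, shown by histopathology or by peak ALT or AST elevation over alkaline phosphatase ratio below 2, value counts indexed literature reports.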
# 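For Hepatotoxicity (chronic liver disease) in this document: chronic liver injury confirmed by histopathology or persistently raised serum aminotransferase activity beyond 6 months, value given as the count of indexed literature references.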
# 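For Hepatotoxicity (cirrhosis) in this document: value is a count of indexed literature references reporting cirrhosis confirmed by histopathology.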
# 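For Hepatotoxicity (cytolytic) in this document: human cytolytic liver injury, shown by histopathology or by a ratio above 5 of peak ALT or AST elevation to alkaline phosphatase elevation, value counts indexed references.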
# 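For Hepatotoxicity (granulomatous hepatitis) in this document: value is a count of indexed literature references reporting granulomatous liver disease confirmed by histopathology.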
# 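For Hepatotoxicity (malignant tumour) in this document: malignant tumour confirmed by histopathology, value gives the count of indexed literature references reporting it.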
# 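For Hepatotoxicity (severe hepatitis) in this document: human clinical data: severe hepatitis, meaning potentially life-threatening liver failure or clinically observed cases, the value counts how many indexed literature references report it.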
# 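For Hepatotoxicity (steatosis) in this document: steatosis confirmed by histopathology, value is the count of indexed references.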
Compound,Hepatotoxicity (chronic liver disease) [1],Hepatotoxicity (acute) [2],Hepatotoxicity (benign tumour) [3],Hepatotoxicity (moderate) [9],Hepatotoxicity (steatosis) [10],Hepatotoxicity (association with vascular disease) [11],Hepatotoxicity (malignant tumour) [12],Hepatotoxicity (time to onset) [13],Hepatotoxicity (cirrhosis) [14],Hepatotoxicity (cytolytic) [4],Hepatotoxicity (severe hepatitis) [5],Hepatotoxicity (moderate) [6],Hepatotoxicity (acute) [7],Hepatotoxicity (granulomatous hepatitis) [8],Hepatotoxicity (choleostasis) [15],other results
[AsH3] [ARSENIC],1,1,0,4,0,0,1,46 years,1,,,,,,,Hepatotoxicity (cytolytic) ([4]; Liver): 0; Hepatotoxicity (severe hepatitis) ([5]; Liver): 0; Hepatotoxicity (moderate) ([6]; Liver): 35.7%; Hepatotoxicity (acute) ([7]; Liver): 47.6%; Hepatotoxicity (granulomatous hepatitis) ([8]; Liver): 0; Hepatotoxicity (choleostasis) ([15]; Liver): 0
COc1c(C)c2c(c(O)c1C/C=C(\C)CCC(=O)OCCN1CCOCC1)C(=O)OC2 [MYCOPHENOLATE MOFETIL],0,1,0,3,0,0,0,2 weeks,0,1,0,33.3%,0%,0,0,
O=C(c1ccccc1)c1ccc2n1CCC2C(=O)O (stereo not given) [KETOROLAC],0,1,0,1,0,0,0,1 day - 10 days,0,1,0,32%,1%,0,1,
COc1nc(C)nc(Cl)c1N=C1NCCN1 [MOXONIDINE],0,1,0,0,0,0,0,9 months,0,1,,,,0,1,Hepatotoxicity (severe hepatitis) ([5]; Liver): 1; Hepatotoxicity (moderate) ([6]; Liver): 0%; Hepatotoxicity (acute) ([7]; Liver): 0%
CCS(=O)(=O)CCn1c([N+](=O)[O-])cnc1C [TINIDAZOLE],0,1,0,1,0,0,0,1 week,0,1,0,0%,0%,0,0,
CCn1cc(C(=O)O)c(=O)c2cc(F)c(N3CCNCC3)nc21 [ENOXACIN],0,1,0,6,0,0,0,9 days,0,0,0,3.3%,0%,0,1,
MEGLUMINE ANTIMONATE,0,1,0,3,0,0,0,6 hours - 6 days,0,0,0,6%,0%,0,0,
Fc1ccccc1C1=NCC(=S)N(CC(F)(F)F)c2ccc(Cl)cc21 [QUAZEPAM],0,0,0,1,0,0,0,4 weeks,0,0,0,0%,0%,0,0,
CCN(CC)CCCC(C)Nc1ccnc2cc(Cl)ccc12 (stereo not given) [CHLOROQUINE],0,8,0,7,0,0,0,1 day - 4 months,0,4,0,0%,0%,1,1,
